Measured values reported in a compilation of properties of binary mixtures (doi:10.1016/j.molliq.2020.113380).

Test: xn = mol fraction of the nth substance listed
Settings: 86 kPa, x2 = 0.5

## O=C(O)COCC(=O)O + CCCC[N+](CCCC)(CCCC)CCCC.O=S(=O)([O-])O
293.15 K
  electrical conductivity: 0.0002 S/m
  speed of sound: 1820.2 m/s
298.15 K
  electrical conductivity: 0.0004 S/m
  speed of sound: 1770.7 m/s
303.15 K
  electrical conductivity: 0.0007 S/m
  speed of sound: 1720.3 m/s
  viscosity: 38300 mPa·s
308.15 K
  electrical conductivity: 0.0013 S/m
  speed of sound: 1690.7 m/s
  viscosity: 21200 mPa·s
313.15 K
  electrical conductivity: 0.0022 S/m
  speed of sound: 1661.5 m/s
  viscosity: 12020 mPa·s
318.15 K
  electrical conductivity: 0.0035 S/m
  speed of sound: 1630.3 m/s
  viscosity: 7750 mPa·s
323.15 K
  electrical conductivity: 0.0054 S/m
  speed of sound: 1603.6 m/s
  viscosity: 5450 mPa·s
328.15 K
  electrical conductivity: 0.0081 S/m
  speed of sound: 1581 m/s
  viscosity: 3520 mPa·s
333.15 K
  electrical conductivity: 0.0117 S/m
  speed of sound: 1560.2 m/s
  viscosity: 2500 mPa·s
338.15 K
  viscosity: 1750 mPa·s
343.15 K
  viscosity: 1250 mPa·s
